Here are results for three molecules from publication PMC3157398 (PLoS ONE, 2011).

Test [1] deals with mycobacterial ATP synthase (Mycolicibacterium smegmatis, UniProt A0R205+A0R206).
For the next test, the target named is T1, ATP synthase subunit c (Mycobacterium tuberculosis, UniProt P9WPS1).
T1 construct: made in house
The class given is binding.

In the next test the target is ATP synthase holoenzyme (Bacillus sp., UniProt P00845+P09218). It counts as binding, Bacillus PS3.
Test [2] deals with ATP synthase with resistance mutation D32V in subunit c. It counts as biochemical, Mycobacterium smegmatis.

T1 sequence (P9WPS1 whole entry): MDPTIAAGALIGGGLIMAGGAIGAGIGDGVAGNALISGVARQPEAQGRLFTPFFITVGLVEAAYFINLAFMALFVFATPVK

With `CC(C)(C)c1cc(C=C(C#N)C#N)cc(C(C)(C)C)c1O` [SF6847], in test [1], the “residual ATP synthesis activity” value is listed as less than 10%.
For `COc1nc2ccc(N)cc2cc1[C@@H](c1ccccc1)[C@@](O)(CCN(C)C)c1cccc2ccccc12` [TMC207 amino-analog], the “dissociation constant of mono-exponential fit” value at ATP synthase subunit c came to 0.002295; on ATP synthase holoenzyme, 0.000103.
For `COc1nc2ccc(Br)cc2cc1[C@@H](c1ccccc1)[C@@](O)(CCN(C)C)c1cccc2ccccc12` [TMC207], the “inhibition of ATP synthesis” value in test [2] is reported as “no inhibition”.
